17 compounds from patent US20260138976A1 (Hoffmann-La Roche Inc., priority 2022, published 2026) can be followed below.

The IC50 is the midpoint of a concentration-inhibition curve.

Assay [1] addresses T1, DGKα (hDGKalpha(1-735)-N-His) (Homo sapiens, UniProt P23743).
T1 construct: hDGKalpha(1-735)-N-His; His (N); made in house; host or cells: Sf21 insect cells (baculovirus)
Nature of the assay: In vitro DGK inhibition assay, DGKalpha ADP Glo (in house). It is filed as biochemical. Particulars: 4 nM DGKα, 25 μM ATP, 125 uM DLG in liposomes, 1 hour reaction. The gist of the method: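 ADP-Glo luminescence measured ADP formed over 1 h by Sf21-expressed full-length human enzymes: DGKα at 4 nM with 25 µM ATP, DGKζ at 2 nM with 50 µM ATP, both on 125 µM DLG in PS/PC liposomes. Dose–response used 11 threefold dilutions at 2% final DMSO.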
In general terms: In ADP-Glo the light output rises with the ADP produced.

Assay [2] has as its system primary human T-cells. Nature of the assay: Proliferation assay (5 days, CellTiter-Glo, CD3-stimulated T-cells). It is filed as cell-based. The settings on record: for Emax proliferation (% activation): CD3 condition, normalised to DMSO (neutral) and 20 μM reference compound A1 = 100%; for EC50: Homo sapiens, T-cell, 120 h, CD3-stimulated primary human T-cells, 5 days, CellTiter-Glo, fitted sigmoidal curve, read-out: Tcell Proliferation CD3 EC50. The gist of the method: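 Proliferation read-out: ATP luminescence (CellTiter-Glo 2.0) at day 5 in expanded primary human T-cells on CD3 antibody-coated plates, with PBS-only plates as a counter screen. Compounds in 5–6 pt series (factor 3.333, top 20 or 10 μM final). Values are normalized to DMSO (neutral) and 20 μM reference A1 (100%), from sigmoidal fits.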
In general terms: In ATP-based viability assays light output follows the ATP content of the culture.

T1 sequence (P23743 whole entry): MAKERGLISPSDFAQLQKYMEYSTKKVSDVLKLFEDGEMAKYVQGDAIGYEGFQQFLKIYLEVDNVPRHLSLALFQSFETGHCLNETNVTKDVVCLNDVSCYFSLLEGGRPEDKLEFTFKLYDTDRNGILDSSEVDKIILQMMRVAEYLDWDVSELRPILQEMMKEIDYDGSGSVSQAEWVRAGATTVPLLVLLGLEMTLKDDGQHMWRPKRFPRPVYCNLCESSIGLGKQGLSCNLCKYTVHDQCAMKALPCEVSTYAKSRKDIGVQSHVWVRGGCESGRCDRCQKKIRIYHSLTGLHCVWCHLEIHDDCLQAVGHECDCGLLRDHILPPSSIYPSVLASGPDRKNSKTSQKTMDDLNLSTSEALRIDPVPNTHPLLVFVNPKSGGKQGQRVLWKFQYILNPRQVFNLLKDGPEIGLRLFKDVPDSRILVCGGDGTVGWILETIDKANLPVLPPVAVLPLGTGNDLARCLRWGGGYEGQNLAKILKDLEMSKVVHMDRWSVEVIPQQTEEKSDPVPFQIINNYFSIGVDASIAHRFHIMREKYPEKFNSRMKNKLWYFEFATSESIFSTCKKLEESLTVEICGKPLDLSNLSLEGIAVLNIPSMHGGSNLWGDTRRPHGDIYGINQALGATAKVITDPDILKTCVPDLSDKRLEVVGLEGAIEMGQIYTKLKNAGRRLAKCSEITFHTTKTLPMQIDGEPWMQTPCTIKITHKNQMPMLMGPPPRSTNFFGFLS

In assay [1], `COC(=O)N1CC2CC(c3nnc(-c4ccc5c(c4)N(Cc4ccc(-c6ccc(C(F)(F)F)cc6)cc4)C(=O)[C@@H](N)CS5(=O)=O)o3)(C2)C1` [Example 60, methyl 1-[5-[(3R)-3-amino-1,1,4-trioxo-5-[[4-[4-(trifluoromethyl)phenyl]phenyl]methyl]-2,3-dihydro-1λ^6,5-benzothiazepin-7-yl]-1,3,4-oxadiazol-2-yl]-3-azabicyclo[3.1.1]heptane-3-carboxylate] showed an IC50 of 3.63 µM. Besides, in assay [2], the “Emax proliferation (% activation)” value was 110 % activation and the EC50 was 0.0417 µM.
As to `COc1ccc(-c2ccc(CN3C(=O)[C@@H](N)CS(=O)(=O)c4ccc(-c5nnc(C6(CO)CCCO6)o5)cc43)cc2)cc1` (stereo partly drawn) [Example 63, (3R)-3-amino-7-[5-[2-(hydroxymethyl)tetrahydrofuran-2-yl]-1,3,4-oxadiazol-2-yl]-5-[[4-(4-methoxyphenyl)phenyl]methyl]-1,1-dioxo-2,3-dihydro-1λ^6,5-benzothiazepin-4-one], 33.7 µM corresponded to half-maximal inhibition in assay [1] (IC50). Moreover, in assay [2], the “Emax proliferation (% activation)” value is 103 % activation and the EC50 turned out to be 1.06 µM.
On to `COC(F)(c1nnc(-c2ccc3c(c2)N(Cc2ccc(-c4nnc(C5CC5)o4)cc2)C(=O)[C@@H](N)CS3(=O)=O)o1)C(F)(F)F` (stereo partly drawn) [Example 65], for which, in assay [1], the IC50 is 2.49 µM. Also, in assay [2], the “Emax proliferation (% activation)” value is 102 % activation and the EC50 turned out to be 0.681 µM.
In the case of `N[C@H]1CS(=O)(=O)c2ccc(-c3nnc(N4CCC(F)(F)CC4)o3)cc2N(Cc2ccc(-c3nnc(C(F)(F)F)o3)cc2)C1=O` [Example 71, (3R)-3-amino-7-[5-(4,4-difluoro-1-piperidyl)-1,3,4-oxadiazol-2-yl]-1,1-dioxo-5-[[4-[5-(trifluoromethyl)-1,3,4-oxadiazol-2-yl]phenyl]methyl]-2,3-dihydro-1λ^6,5-benzothiazepin-4-one], in assay [1], half-maximal inhibition (IC50) was put at 24.7 µM. In addition, in assay [2], the “Emax proliferation (% activation)” value came out at 129 % activation and the EC50 is 2.87 µM.
The compound `CC1(Nc2nnc(-c3ccc4c(c3)N(Cc3ccc(-c5noc(C(F)(F)F)n5)cc3)C(=O)[C@@H](N)CS4(=O)=O)o2)CC(F)(F)C1` [Example 72, (3R)-3-amino-7-[5-[(3,3-difluoro-1-methyl-cyclobutyl)amino]-1,3,4-oxadiazol-2-yl]-1,1-dioxo-5-[[4-[5-(trifluoromethyl)-1,2,4-oxadiazol-3-yl]phenyl]methyl]-2,3-dihydro-1λ^6,5-benzothiazepin-4-one] registered an IC50 in assay [1] of more than 62.5 µM. Moreover, in assay [2], the “Emax proliferation (% activation)” value amounted to 252 % activation and the EC50 worked out at 1.65 µM.
Turning to `N[C@H]1CS(=O)(=O)c2ccc(-c3nnc(N4CCOC(C(F)(F)F)C4)o3)cc2N(Cc2ccc(-c3ccc(C(F)(F)F)cc3)cc2)C1=O` (stereo partly drawn) [Example 73, (3R)-3-amino-1,1-dioxo-7-[5-[2-(trifluoromethyl)morpholin-4-yl]-1,3,4-oxadiazol-2-yl]-5-[[4-[4-(trifluoromethyl)phenyl]phenyl]methyl]-2,3-dihydro-1λ^6,5-benzothiazepin-4-one], the IC50 in assay [1] is more than 62.5 µM. In addition, in assay [2], the “Emax proliferation (% activation)” value is given as 95 % activation and the EC50 was determined as 0.828 µM.
Compound `N[C@H]1CS(=O)(=O)c2ccc(-c3nnc(N4CCOC(C(F)(F)F)C4)o3)cc2N(Cc2ccc(-c3noc(C(F)(F)F)n3)cc2)C1=O` (stereo partly drawn) [Example 74, (3R)-3-amino-1,1-dioxo-7-[5-[2-(trifluoromethyl)morpholin-4-yl]-1,3,4-oxadiazol-2-yl]-5-[[4-[5-(trifluoromethyl)-1,2,4-oxadiazol-3-yl]phenyl]methyl]-2,3-dihydro-1λ^6,5-benzothiazepin-4-one] returned an IC50 in assay [1] of 3.66 µM. Moreover, in assay [2], the “Emax proliferation (% activation)” value came to 148 % activation and the EC50 was found to be 0.527 µM.
The matching figures for `N[C@H]1CS(=O)(=O)c2ccc(-c3nnc(N4CCOC(C(F)(F)F)C4)o3)cc2N(Cc2ccc(-c3ccc(C(F)(F)F)cn3)cc2)C1=O` (stereo partly drawn) [Example 75, (3R)-3-amino-1,1-dioxo-7-[5-[2-(trifluoromethyl)morpholin-4-yl]-1,3,4-oxadiazol-2-yl]-5-[[4-[5-(trifluoromethyl)-2-pyridyl]phenyl]methyl]-2,3-dihydro-1λ^6,5-benzothiazepin-4-one]: 45.7 µM, 115 % activation and 1.2 µM.
In the case of `COc1ccc(-c2ccc(CN3C(=O)[C@@H](N)CS(=O)(=O)c4ccc(-c5nnc(N6CCC(F)(F)C6)o5)cc43)cc2)cc1` [Example 76, (3R)-3-amino-7-[5-(3,3-difluoropyrrolidin-1-yl)-1,3,4-oxadiazol-2-yl]-5-[[4-(4-methoxyphenyl)phenyl]methyl]-1,1-dioxo-2,3-dihydro-1λ^6,5-benzothiazepin-4-one], the IC50 in assay [1] was determined as 26.1 µM. In assay [2], the “Emax proliferation (% activation)” value amounted to 263 % activation and the EC50 is 1.36 µM.
The compound `N[C@H]1CS(=O)(=O)c2ccc(-c3nnc(N4CCOC5(CC5)C4)o3)cc2N(Cc2ccc(-c3noc(C(F)(F)F)n3)cc2)C1=O` [Example 77] registered an IC50 in assay [1] of 48.2 µM. Moreover, in assay [2], the “Emax proliferation (% activation)” value is on record as 58 % activation and the EC50 was determined as 3.93 µM.
In assay [1], `N[C@H]1CS(=O)(=O)c2ccc(-c3nnc(N4CCOC(F)(F)C4)o3)cc2N(Cc2ccc(-c3noc(C(F)(F)F)n3)cc2)C1=O` [Example 78, (3R)-3-amino-7-[5-(2,2-difluoromorpholin-4-yl)-1,3,4-oxadiazol-2-yl]-1,1-dioxo-5-[[4-[5-(trifluoromethyl)-1,2,4-oxadiazol-3-yl]phenyl]methyl]-2,3-dihydro-1λ^6,5-benzothiazepin-4-one] came in with an IC50 of 43.3 µM. In assay [2], the “Emax proliferation (% activation)” value turned out to be 150 % activation and the EC50 came to 1.09 µM.
In assay [1], `COc1ccc(-c2ccc(CN3C(=O)[C@@H](N)CS(=O)(=O)c4ccc(-c5nnc(N6CCOC(F)(F)C6)o5)cc43)cc2)cc1` [Example 79, (3R)-3-amino-7-[5-(2,2-difluoromorpholin-4-yl)-1,3,4-oxadiazol-2-yl]-5-[[4-(4-methoxyphenyl)phenyl]methyl]-1,1-dioxo-2,3-dihydro-1λ^6,5-benzothiazepin-4-one] showed an IC50 of 39.7 µM. In assay [2], the “Emax proliferation (% activation)” value was found to be 167 % activation and the EC50 stood at 0.989 µM.
`COc1ccc(-c2ccc(CN3C(=O)[C@@H](N)CS(=O)(=O)c4ccc(-c5nnc(N(C)CC(F)(F)F)o5)cc43)cc2)cc1` [Example 81, (3R)-3-amino-5-[[4-(4-methoxyphenyl)phenyl]methyl]-7-[5-[methyl(2,2,2-trifluoroethyl)amino]-1,3,4-oxadiazol-2-yl]-1,1-dioxo-2,3-dihydro-1λ^6,5-benzothiazepin-4-one] registered an IC50 in assay [1] of 38.9 µM. Moreover, in assay [2], the “Emax proliferation (% activation)” value was 138 % activation and the EC50 was determined as 0.729 µM.
The matching figures for `N[C@H]1CS(=O)(=O)c2ccc(-c3noc(C4(N)COC4)n3)cc2N(Cc2ccc(-c3noc(C(F)(F)F)n3)cc2)C1=O` [Example 84, (3R)-3-amino-7-[5-(3-aminooxetan-3-yl)-1,2,4-oxadiazol-3-yl]-1,1-dioxo-5-[[4-[5-(trifluoromethyl)-1,2,4-oxadiazol-3-yl]phenyl]methyl]-2,3-dihydro-1lambda6,5-benzothiazepin-4-one]: more than 62.5 µM, 151 % activation and 1.75 µM.
In assay [1], `N[C@H]1CS(=O)(=O)c2ccc(-c3noc(-c4cccnc4Cl)n3)cc2N(Cc2ccc(-c3noc(C4CC4)n3)cc2)C1=O` [Example 85, (3R)-3-amino-7-[5-(2-chloro-3-pyridyl)-1,2,4-oxadiazol-3-yl]-5-[[4-(5-cyclopropyl-1,2,4-oxadiazol-3-yl)phenyl]methyl]-1,1-dioxo-2,3-dihydro-1λ^6,5-benzothiazepin-4-one] registered an IC50 of more than 62.5 µM. Further, in assay [2], the “Emax proliferation (% activation)” value is given as 62 % activation and the EC50 was found to be 8.17 µM.
Consider `Cc1nc(F)ccc1-c1nc(-c2ccc3c(c2)N(Cc2ccc(-c4noc(C5CC5)n4)cc2)C(=O)[C@@H](N)CS3(=O)=O)no1` [Example 86, (3R)-3-amino-5-[[4-(5-cyclopropyl-1,2,4-oxadiazol-3-yl)phenyl]methyl]-7-[5-(6-fluoro-2-methyl-3-pyridyl)-1,2,4-oxadiazol-3-yl]-1,1-dioxo-2,3-dihydro-1λ^6,5-benzothiazepin-4-one], for which the IC50 in assay [1] is more than 62.5 µM. In addition, in assay [2], the “Emax proliferation (% activation)” value is on record as 99 % activation and the EC50 turned out to be 1.66 µM.
`N[C@H]1CS(=O)(=O)c2ccc(-c3noc(-c4cccnc4C(F)(F)F)n3)cc2N(Cc2ccc(-c3noc(C4CC4)n3)cc2)C1=O` [Example 87, (3R)-3-amino-5-[[4-(5-cyclopropyl-1,2,4-oxadiazol-3-yl)phenyl]methyl]-1,1-dioxo-7-[5-[2-(trifluoromethyl)-3-pyridyl]-1,2,4-oxadiazol-3-yl]-2,3-dihydro-1λ^6,5-benzothiazepin-4-one] had an IC50 in assay [1] of more than 62.5 µM. Further, in assay [2], the “Emax proliferation (% activation)” value worked out at 106 % activation and the EC50 was 3.62 µM.
